Laboratory results reported in ChEMBL document CHEMBL2073818, “St John's Wort induces intestinal P-glycoprotein/MDR1 and intestinal and hepatic CYP3A4” (Clin Pharmacol Ther, 2000).

Target: ATP-dependent translocase ABCB1 (Homo sapiens, UniProt P08183)
Assay: TP_TRANSPORTER: Western in vivo human
Type: functional, organism-based

Chain of ATP-dependent translocase ABCB1 (P08183 whole entry): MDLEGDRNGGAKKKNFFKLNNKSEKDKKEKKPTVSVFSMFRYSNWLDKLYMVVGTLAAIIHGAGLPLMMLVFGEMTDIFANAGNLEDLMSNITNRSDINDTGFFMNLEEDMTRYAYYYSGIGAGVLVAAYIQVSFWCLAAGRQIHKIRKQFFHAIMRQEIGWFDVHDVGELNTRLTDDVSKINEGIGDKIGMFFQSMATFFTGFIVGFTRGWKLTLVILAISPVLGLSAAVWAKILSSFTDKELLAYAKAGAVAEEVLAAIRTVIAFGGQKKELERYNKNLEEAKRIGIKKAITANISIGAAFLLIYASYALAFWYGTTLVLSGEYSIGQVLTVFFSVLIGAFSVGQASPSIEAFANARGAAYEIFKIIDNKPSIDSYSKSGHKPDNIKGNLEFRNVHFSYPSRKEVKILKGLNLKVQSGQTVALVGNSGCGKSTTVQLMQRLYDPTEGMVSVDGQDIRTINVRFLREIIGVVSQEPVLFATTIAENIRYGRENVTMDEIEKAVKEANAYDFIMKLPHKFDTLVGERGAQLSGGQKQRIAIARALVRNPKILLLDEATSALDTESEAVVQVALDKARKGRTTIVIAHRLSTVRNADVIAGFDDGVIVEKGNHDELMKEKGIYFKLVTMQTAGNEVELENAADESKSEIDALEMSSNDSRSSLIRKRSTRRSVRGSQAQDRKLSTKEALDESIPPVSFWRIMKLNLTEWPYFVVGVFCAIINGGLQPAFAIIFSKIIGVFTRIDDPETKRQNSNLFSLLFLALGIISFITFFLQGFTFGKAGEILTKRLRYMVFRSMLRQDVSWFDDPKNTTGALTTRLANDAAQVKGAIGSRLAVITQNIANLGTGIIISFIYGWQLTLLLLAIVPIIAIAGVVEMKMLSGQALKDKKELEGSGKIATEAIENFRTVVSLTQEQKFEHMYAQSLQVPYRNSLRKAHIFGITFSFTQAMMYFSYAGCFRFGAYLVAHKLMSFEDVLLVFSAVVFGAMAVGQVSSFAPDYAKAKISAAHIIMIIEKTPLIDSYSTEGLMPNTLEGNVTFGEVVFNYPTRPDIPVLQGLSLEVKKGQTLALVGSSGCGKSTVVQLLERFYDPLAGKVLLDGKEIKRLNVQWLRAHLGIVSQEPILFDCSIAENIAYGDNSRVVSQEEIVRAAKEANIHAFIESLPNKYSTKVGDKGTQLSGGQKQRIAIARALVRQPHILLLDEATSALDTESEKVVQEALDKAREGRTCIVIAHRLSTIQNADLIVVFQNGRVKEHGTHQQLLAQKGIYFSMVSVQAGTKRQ

Activity: inducer [+]
Substance: ST. JOHN'S WORT
